The text below walks through data of patent US8557763B2, “Synthetic peptides that enhance tight junction permeability” (Alba Therapeutics Corporation, priority 2007, dated 2013).

Where no end group is shown, it is not given here. [ ]: non-standard residue; d: D form. dAllylGly = C=CC[C@@H](N)C(=O)O; AllylGly = C=CC[C@H](N)C(=O)O

The subject of experiment [1] is CaCo2 monolayers. Nature of the experiment: Trans Epithelial Electric Resistance (TEER) across CaCo2 monolayers. It is filed as cell-based. As to conditions: CaCo2 monolayers. Details: key to Reduced TEER: + indicates an enhancement of the permeability of the tight junctions were observed; − indicates no enhancement of permeability was observed. The text has this:
(§1) Agonists of tight junctions can be identified by their ability to enhance the flux of compounds (e.g. ions, Lucifer Yellow) through a cell monolayer that comprises tight junctions; or by their ability to reduce TEER across a cell monolayer that comprises tight junctions. Treatment of CaCo2 monolayers with peptide FCIGRL (SEQ ID NO: 1) led to a 51-fold enhancement of Lucifer Yellow permeability through CaCo2 monolayers compared to vehicle alone.
Treatment of CaCo2 monolayers with peptide FCIGRL led to a 16-fold decrease in TEER across CaCo2 monolayers compared to vehicle alone.
(§2) Tight junction agonists can be identified and tested using the following method:
(§3) Determination of TEER and Lucifer Yellow Flux
(§4) Prepare Modified Hank's Balanced Salt Solution (MHBSS) by obtaining 1 L bottle of HBSS removing 10 ml of HBSS and replacing it with 10 ml HEPES buffer pH 7.0. Adjust pH to 7.4±0.1 using concentrated NaOH (10N).
(§5) Remove CaCo-2 cells from incubator, grown on 12-well, 3.0 μM, polycarbonate Transwell® filters (Corning) and record passage#, date cells seeded and age in days.
(§6) Aspirate cell culture medium from both the apical (AP) and basolateral (BL) compartments, replacing with 0.5 ml and 1.5 ml of MHBSS, respectively. Incubate cells at 37° C. for 30 minutes.
Using the MilliCell®-ERS instrument (Millipore), measure and record the transepithelial electrical resistance (TEER) across each filter and record.
(§7) Aspirate solution from the apical compartment of each filter (n=3 per condition) and replace with 0.5 ml of control and test solutions containing Lucifer Yellow and test compound if appropriate.
(§8) Place all plates into incubator set at 37° C. (±0.2), 50 RPM (±5) for a total of 180 minutes.
At t=30, 60, 120 and 180 minutes, measure and record the transepithelial electrical resistance (TEER) across each filter using the MilliCell-ERS instrument.
(§9) Cells: CaCo-2 cells passage 40-60 grown on Transwell® plates for 21-28 days
(§10) Culture Medium: DMEM supplemented with 10% fetal bovine serum, 1% NEAA, 1% Penn/Strep
(§11) Buffers: Hank's Balanced Salt Solution (HBSS) without calcium and magnesium
(§12) Flasks: 100×20 mm Tissue culture dish Falcon.
(§13) Plates: 12 well polycarbonate Transwell® filters; 0.3 uM pore size

Experiment [2] deals with CaCo2 monolayers. Nature of the experiment: Lucifer Yellow (LY) permeability assay through CaCo2 monolayers. The following applies: CaCo2 monolayers, Lucifer Yellow flux. Details: key to Enhanced LY permeability: + indicates an enhancement of the permeability of the tight junctions were observed; − indicates no enhancement of permeability was observed. It is filed as cell-based.
Excerpt: as §1, §2, §3, §4, §5, §6, §7, §8
At t=60, 120 and 180 minutes remove […] from each basolateral compartment and place it in a 96-well plate for Lucifer Yellow analysis, replace with 100 μl of MHBSS.
Make a Lucifer Yellow standard curve with the following dilutions (7500 μM, 3750 μM, 750 μM, 375 μM, 37.5 μM, 7.5 μM, 3.75 μM, 0.75 μM) and pipette 100 μL of each into a 96-well plate except for the first three standards mentioned above which require a 1:10 dilutions prior to transferring to the 96-well plate.
Harvest the remaining start solutions and what is left in each apical compartment into 1.5 ml vials. Freeze at −20° C. for future analysis.
Analyze each 96-well plate in a Tecan Spectra Fluor Plus using Magellan at 485 and 535 nm.
as §9, §10, §11, §12, §13

Take “1 (FCIGRL; Peptide tight junction agonist) [compound 1]”: in the experiment with CaCo2 monolayers [1], the “Reduced TEER” value is recorded as “+”. For the same substance, the “Enhanced LY permeability” value with CaCo2 monolayers [2] is “+”.

For 2 (F[AllylGly]IGRL) [compound 2], the “Reduced TEER” value with CaCo2 monolayers [1] is listed as “+”. Further, in the experiment with CaCo2 monolayers [2], the “Enhanced LY permeability” value is on record as “+”. “3 (F[AllylGly]IGR-NH2; N-terminus assumed; SMILES C=CC[C@H](NC(=O)[C@@H](N)Cc1ccccc1)C(=O)N[C@H](C(=O)NCC(=O)N[C@@H](CCCNC(=N)N)C(N)=O)[C@@H](C)CC) [compound 3]”: in the experiment on CaCo2 monolayers [1], the “Reduced TEER” value was “−”. Also, the “Enhanced LY permeability” value in the experiment on CaCo2 monolayers [2] is reported as “−”. In the case of “4 (F[dAllylGly]IGR-NH2; N-terminus assumed; SMILES C=CC[C@@H](NC(=O)[C@@H](N)Cc1ccccc1)C(=O)N[C@H](C(=O)NCC(=O)N[C@@H](CCCNC(=N)N)C(N)=O)[C@@H](C)CC) [compound 4]”, the “Reduced TEER” value with CaCo2 monolayers [1] is on record as “−”. Also, in the experiment with CaCo2 monolayers [2], the “Enhanced LY permeability” value is listed as “−”. Regarding “5 (M[AllylGly]IGRL-NH2; N-terminus assumed; SMILES C=CC[C@H](NC(=O)[C@@H](N)CCSC)C(=O)N[C@H](C(=O)NCC(=O)N[C@@H](CCCNC(=N)N)C(=O)N[C@@H](CC(C)C)C(N)=O)[C@@H](C)CC) [compound 5]”, the “Reduced TEER” value in the experiment with CaCo2 monolayers [1] is “−”. Also, the “Enhanced LY permeability” value in the experiment with CaCo2 monolayers [2] is “+”. In the same order, the values of “6 (Q[AllylGly]IGRL-NH2; N-terminus assumed; SMILES C=CC[C@H](NC(=O)[C@@H](N)CCC(N)=O)C(=O)N[C@H](C(=O)NCC(=O)N[C@@H](CCCNC(=N)N)C(=O)N[C@@H](CC(C)C)C(N)=O)[C@@H](C)CC) [compound 6]” are “−” and “−”. As for “7 (L[AllylGly]IGRL-NH2; N-terminus assumed; SMILES C=CC[C@H](NC(=O)[C@@H](N)CC(C)C)C(=O)N[C@H](C(=O)NCC(=O)N[C@@H](CCCNC(=N)N)C(=O)N[C@@H](CC(C)C)C(N)=O)[C@@H](C)CC) [compound 7]”, in the experiment with CaCo2 monolayers [1], the “Reduced TEER” value was “−”. For the same substance, the “Enhanced LY permeability” value in the experiment with CaCo2 monolayers [2] is “+”. In the same order, the values of “8 (S[AllylGly]IGRL-NH2; N-terminus assumed; SMILES C=CC[C@H](NC(=O)[C@@H](N)CO)C(=O)N[C@H](C(=O)NCC(=O)N[C@@H](CCCNC(=N)N)C(=O)N[C@@H](CC(C)C)C(N)=O)[C@@H](C)CC) [compound 8]” are “−” and “−”. Turning to “9 (T[AllylGly]IGRL-NH2; N-terminus assumed; SMILES C=CC[C@H](NC(=O)[C@@H](N)[C@@H](C)O)C(=O)N[C@H](C(=O)NCC(=O)N[C@@H](CCCNC(=N)N)C(=O)N[C@@H](CC(C)C)C(N)=O)[C@@H](C)CC) [compound 9]”, in the experiment with CaCo2 monolayers [1], the “Reduced TEER” value is “−”.

In the case of “10 (E[AllylGly]IGRL-NH2; N-terminus assumed; SMILES C=CC[C@H](NC(=O)[C@@H](N)CCC(=O)O)C(=O)N[C@H](C(=O)NCC(=O)N[C@@H](CCCNC(=N)N)C(=O)N[C@@H](CC(C)C)C(N)=O)[C@@H](C)CC) [compound 10]”, in the experiment on CaCo2 monolayers [1], the “Reduced TEER” value is “−”. The “Enhanced LY permeability” value in the experiment on CaCo2 monolayers [2] is listed as “−”. As to “11 (V[AllylGly]IGRL-NH2; N-terminus assumed; SMILES C=CC[C@H](NC(=O)[C@@H](N)C(C)C)C(=O)N[C@H](C(=O)NCC(=O)N[C@@H](CCCNC(=N)N)C(=O)N[C@@H](CC(C)C)C(N)=O)[C@@H](C)CC) [compound 11]”, in the experiment on CaCo2 monolayers [1], the “Reduced TEER” value was “−”. For the same substance, the “Enhanced LY permeability” value in the experiment with CaCo2 monolayers [2] is reported as “−”.

Regarding “12 (Y[AllylGly]IGRL-NH2; N-terminus assumed; SMILES C=CC[C@H](NC(=O)[C@@H](N)Cc1ccc(O)cc1)C(=O)N[C@H](C(=O)NCC(=O)N[C@@H](CCCNC(=N)N)C(=O)N[C@@H](CC(C)C)C(N)=O)[C@@H](C)CC) [compound 12]”, the “Reduced TEER” value in the experiment on CaCo2 monolayers [1] was “−”. Further, in the experiment on CaCo2 monolayers [2], the “Enhanced LY permeability” value is on record as “−”. On to “13 (G[AllylGly]IGRL; not fully specified; printed as Gly−AllylGly−Ile−Gly−Arg−Leu−NR2) [compound 13]”, for which the “Reduced TEER” value in the experiment on CaCo2 monolayers [1] is “−”. Also, the “Enhanced LY permeability” value in the experiment on CaCo2 monolayers [2] was “−”. “14 (D[AllylGly]IGRL-NH2; N-terminus assumed; SMILES C=CC[C@H](NC(=O)[C@@H](N)CC(=O)O)C(=O)N[C@H](C(=O)NCC(=O)N[C@@H](CCCNC(=N)N)C(=O)N[C@@H](CC(C)C)C(N)=O)[C@@H](C)CC) [compound 14]”: in the experiment with CaCo2 monolayers [1], the “Reduced TEER” value was “−”. With “15 (W[AllylGly]IGRL-NH2; N-terminus assumed; SMILES C=CC[C@H](NC(=O)[C@@H](N)Cc1c[nH]c2ccccc12)C(=O)N[C@H](C(=O)NCC(=O)N[C@@H](CCCNC(=N)N)C(=O)N[C@@H](CC(C)C)C(N)=O)[C@@H](C)CC) [compound 15]”, the “Reduced TEER” value in the experiment on CaCo2 monolayers [1] is recorded as “−”. The “Enhanced LY permeability” value in the experiment with CaCo2 monolayers [2] is “+”.

As for “16 (K[AllylGly]IGRL-NH2; N-terminus assumed; SMILES C=CC[C@H](NC(=O)[C@@H](N)CCCCN)C(=O)N[C@H](C(=O)NCC(=O)N[C@@H](CCCNC(=N)N)C(=O)N[C@@H](CC(C)C)C(N)=O)[C@@H](C)CC) [compound 16]”, the “Reduced TEER” value in the experiment on CaCo2 monolayers [1] is on record as “−”. The “Enhanced LY permeability” value in the experiment on CaCo2 monolayers [2] is listed as “−”. Turning to “17 (A[AllylGly]IGRL-NH2; N-terminus assumed; SMILES C=CC[C@H](NC(=O)[C@H](C)N)C(=O)N[C@H](C(=O)NCC(=O)N[C@@H](CCCNC(=N)N)C(=O)N[C@@H](CC(C)C)C(N)=O)[C@@H](C)CC) [compound 17]”, the “Reduced TEER” value with CaCo2 monolayers [1] was “−”. Moreover, the “Enhanced LY permeability” value in the experiment on CaCo2 monolayers [2] is “−”. For “18 (H[AllylGly]IGRL-NH2; N-terminus assumed; SMILES C=CC[C@H](NC(=O)[C@@H](N)Cc1c[nH]cn1)C(=O)N[C@H](C(=O)NCC(=O)N[C@@H](CCCNC(=N)N)C(=O)N[C@@H](CC(C)C)C(N)=O)[C@@H](C)CC) [compound 18]”, in the experiment with CaCo2 monolayers [1], the “Reduced TEER” value is on record as “−”. Further, the “Enhanced LY permeability” value with CaCo2 monolayers [2] is recorded as “−”. “60 (F[AllylGly]IGAL-NH2; N-terminus assumed; SMILES C=CC[C@H](NC(=O)[C@@H](N)Cc1ccccc1)C(=O)N[C@H](C(=O)NCC(=O)N[C@@H](C)C(=O)N[C@@H](CC(C)C)C(N)=O)[C@@H](C)CC) [compound 60]”: in the experiment with CaCo2 monolayers [2], the “Enhanced LY permeability” value is “+”. Take “68 (F[AllylGly]IGTL-NH2; N-terminus assumed; SMILES C=CC[C@H](NC(=O)[C@@H](N)Cc1ccccc1)C(=O)N[C@H](C(=O)NCC(=O)N[C@H](C(=O)N[C@@H](CC(C)C)C(N)=O)[C@@H](C)O)[C@@H](C)CC) [compound 68]”: the “Reduced TEER” value in the experiment on CaCo2 monolayers [1] is “+”. The same measure, in the same setting: the entry for “69 (F[AllylGly]IGIL-NH2; N-terminus assumed; SMILES C=CC[C@H](NC(=O)[C@@H](N)Cc1ccccc1)C(=O)N[C@H](C(=O)NCC(=O)N[C@H](C(=O)N[C@@H](CC(C)C)C(N)=O)[C@@H](C)CC)[C@@H](C)CC) [compound 69]” is “−”. Regarding “70 (F[AllylGly]IGWL-NH2; N-terminus assumed; SMILES C=CC[C@H](NC(=O)[C@@H](N)Cc1ccccc1)C(=O)N[C@H](C(=O)NCC(=O)N[C@@H](Cc1c[nH]c2ccccc12)C(=O)N[C@@H](CC(C)C)C(N)=O)[C@@H](C)CC) [compound 70]”, in the experiment on CaCo2 monolayers [2], the “Enhanced LY permeability” value was “+”.

“81 (F[AllylGly]IGRT-NH2; N-terminus assumed; SMILES C=CC[C@H](NC(=O)[C@@H](N)Cc1ccccc1)C(=O)N[C@H](C(=O)NCC(=O)N[C@@H](CCCNC(=N)N)C(=O)N[C@H](C(N)=O)[C@@H](C)O)[C@@H](C)CC) [compound 81]”: the “Enhanced LY permeability” value with CaCo2 monolayers [2] is “−”.
